This passage reports bioavailability and solubility results from patent US8962880B2, “Amorphous asiatic tromethamine salt and preparation method thereof” (Shanghai Institute of Pharmaceutical Industry, priority 2011, dated 2015).

SMILES strings stand for the structures. In brackets after ≈: the same amount, converted by molar mass.

For data set [1] the following is noted: in vivo, 50 mg.
Data set [2] can be described thus: physchem.

On to `C[C@H]1[C@H](C)CC[C@]2(C(=O)O)CC[C@]3(C)C(=CC[C@@H]4[C@@]5(C)C[C@@H](O)[C@H](O)[C@@](C)(CO)[C@@H]5CC[C@]43C)[C@H]12.NC(CO)(CO)CO` [comparative sample, asiatic acid tromethamine salt], for which the bioavailability entry in data set [1] is “ca. 7.6%”.

What is called solubility is the concentration that dissolves in the medium under given conditions. Regarding `C[C@H]1[C@H](C)CC[C@]2(C(=O)O)CC[C@]3(C)C(=CC[C@@H]4[C@@]5(C)C[C@@H](O)[C@H](O)[C@@](C)(CO)[C@@H]5CC[C@]43C)[C@H]12` [asiatic acid, 2α,3β,23-trihydroxy-ursa-12-en-28-oic acid], the solubility in data set [2] (organic solvent or mixture) stood at 33.1 mg/mL (≈ 67.7 mM); in data set [2] (water), 0.03 mg/mL (≈ 0.0614 mM).
